Test results: US20210205329A1 (The University of North Carolina at Chapel Hill, priority 2018, published 2021)

Columns and labels:
CX3CL1 = CX3CL1 (fracktalkine) ELISA in P rat NAc; type: in vivo; settings: 15 mg/kg IP, 45 min
Procedure: Rats were administered VEH or 3α,5α-THP (15 mg/kg, IP) and sacrificed after 45 min. CX3CL1 was measured by ELISA (Raybiotech—ERC-CX3CL1-CL; Norcross, Ga., USA) as per manufacturer's instructions. (Two-way ANOVA: F (1,28)=13.63, P<0.001, Tukey's multiple comparisons test *P<0.05).
ELISA. Brain tissue micropunches were lysed with Cellyte MT and the extracts were assayed for protein content by the BCA procedure (Pierce) and for MCP-1 using the rat MCP-1 ELISA kit (Raybiotech—ERC-MCP-1-CL; Norcross, Ga., USA) or for fracktalkine using the rat fractalkine ELISA kit (Raybiotech—ERC-CX3CL1-CL; Norcross, Ga., USA) as per manufacturer's instructions.
Activation of TLR4 signaling can result in the production of both pro-inflammatory and anti-inflammatory cytokines in P rat brain, but the factors that determine the outcome of TLR4 activation are unknown. […] 3α,5α-THP administration to naïve female and male P rats enhanced the expression of CX3CL1 by 90% in female rat NAc and 34% in male rat NAc. No sex difference in the effect of 3α,5α-THP was observed.

[1] = 3α,5α-THP radioimmunoassay of RAW264.7 cell culture media (conversion of pregnenolone); type: in vitro ADME, mouse
Procedure: 3α,5α-THP Radioimmunoassay (RIA), 3α,5α-THP concentrations in the RAW264.7 cell media were measured by radioimmunoassay as described elsewhere (VanDoren et al, 2000), modified for use with cell media (Cook et al, 2014), Briefly, 3α,5α-THP was extracted from ceil media three times with 3 ml of ethyl acetate and spiked with 1000 counts per minute of [^3H]3α,5α-THP for recovery. The extracts were purified using solid phase silica columns (Burdick and Jackson, Muskegon, Mich.) and used for the assay (run in duplicate) and for recovery measurement. Steroid levels in the samples were extrapolated from a concurrently run standard curve and corrected for their respective extraction efficiencies. The 3α,5α-THP antibody (1:500) was provided by the late Dr. Robert Purdy at Scripps Research Institute. […] The validity of the assay has been verified by gas chromatography mass spectrometry determinations (Porcu et al, 2010), 3α,5α-THP values are expressed as ng/ml of cell media.
Since pregnenolone is a precursor for 3α,5α-THP, the possibility that pregnenolone may have been converted in the RAW264.7 cells was considered by analysis of 3α,5α-THP levels in the cell culture media at the time of cell harvest, 3α,5α-THP was detected at less than 0.69±0.11 nmol/L, indicative of less than 0.1% conversion of 1.0 μM pregnenolone.

SMILES | enhancement of CX3CL1 expression in NAc (CX3CL1; naïve female P rats) [%] | enhancement of CX3CL1 expression in NAc (CX3CL1; naïve male P rats) [%] | conversion of pregnenolone to 3α,5α-THP ([1]; 1.0 μM pregnenolone, RAW264.7 cells) | 3α,5α-THP level in the cell culture media at the time of cell harvest ([1]; RAW264.7 cells treated with 1.0 μM pregnenolone)
CC(=O)[C@H]1CC[C@H]2[C@@H]3CC[C@H]4C[C@H](O)CC[C@]4(C)[C@H]3CC[C@]12C [3α,5α-THP, (3α,5α)3-hydroxypregnan-20-one] | 90 | 34 | – | –
CC(=O)[C@H]1CC[C@H]2[C@@H]3CC=C4C[C@@H](O)CC[C@]4(C)[C@H]3CC[C@]12C [pregnenolone] | – | – | less than 0.1% | less than 0.69±0.11 nmol/L
